From patent EP0036502B1, “2-Alkyl-5-hydroxy-1,4-naphthoquinones, process for their manufacture and pharmaceutical preparations containing these compounds” (ZYMA GMBH, priority 1980, dated 1981)

Tested on: Prostaglandinsynthetase
Assay: Prostaglandin synthetase inhibition in vitro (method of Baumann et al.)
Assay type: biochemical
Conditions: concentration 10-^3 Mol/I, 1000 µM
From the text: Die Erfindung betrifft somit weiterhin die Verwendung der erfindungsgemäßen Verbindungen der allgemeinen Formel I zur Behandlung und Bekämpfung von Entzündungen sowie von allergischen, insbesondere anaphylaktischen Reaktionen. So beträgt beispieslweise die durch 2-Äthyl-5-hydroxy-1,4-naphthochinon hervorgerufene Prostaglandinsynthetase-Hemmung in vitro bei einer Konzentration von 10-^3 Mol/I 87%. Die Bestimmung der Prostaglandinsynthetase-Hemmung wurde nach J. Baumann, F. v. Bruchhausen u. G. Wurm, Naunym-Schmiedeberg's Arch. Pharmacol. 307, 73 (1979) und j. Baumann, G. Wurm u. F. v. Bruchhausen, Arch. Pharm. (Weinheim) 313,330 (1980) durchgeführt.

`CCC1=CC(=O)c2c(O)cccc2C1=O` [2-Äthyl-5-hydroxy-1,4-naphthochinon] was tested, and the Prostaglandinsynthetase-Hemmung in vitro was 87%.
